Peptide text beside a SMILES is read from it. * marks the point of attachment. Cbz = O=C(OCc1ccccc1)*
Legend:
[1] = test system: 急性早幼粒白血病细胞NB4; experiment: MTT cell survival assay, NB4 cells; assay type: cell-based; conditions: 48 h; for Enhancement of the cancer cell inhibition of arsenic trioxide by a proteasome inhibitor: proteasome inhibitor fixed 40 nM combined with arsenic trioxide 0.1-0.5 μM, Fig. 6; for 细胞存活率 (cell survival rate): arsenic trioxide 0.1-0.5 μM, oprozomib 5-40 nM, alone or combined (fixed 40 nM oprozomib or fixed 0.4 μM arsenic trioxide), Fig. 1, 2
[2] = test system: 慢性髓性白血病细胞K562; experiment: MTT cell survival assay, K562 cells; assay type: cell-based; conditions: 48 h, arsenic trioxide 0.4 μM, oprozomib 40 nM, alone or combined, Fig. 5
[3] = test system: 急性早幼粒白血病细胞NB4; experiment: Mouse APL model: CD33 immunohistochemistry of liver and spleen sections; assay type: in vivo, NOD/SCID小鼠; conditions: oprozomib 0.43 mg/kg iv, arsenic trioxide 1.53 mg/kg iv; compared with control group; Fig. 14
[4] = test system: 人肝癌细胞SMMC-7721; experiment: MTT cell survival assay, SMMC-7721 cells; assay type: cell-based, 人; conditions: SMMC-7721, MTT, 48 h; arsenic trioxide 0.4 μM, oprozomib 40 nM, alone or combined; Fig. 5
[5] = test system: 人结直肠腺癌细胞CaCo-2; experiment: MTT cell survival assay, CaCo-2 cells; assay type: cell-based, 人; conditions: CaCo-2, MTT, 48 h; arsenic trioxide 0.4 μM, oprozomib 40 nM, alone or combined; Fig. 5
[6] = test system: 急性早幼粒白血病细胞NB4; experiment: Mouse APL model: HE staining of liver and spleen sections; assay type: in vivo, NOD/SCID小鼠; conditions: oprozomib 0.43 mg/kg iv, arsenic trioxide 1.53 mg/kg iv; compared with control group; Fig. 13
[7] = test system: 急性早幼粒白血病细胞NB4; experiment: Mouse APL model: flow cytometry of bone marrow cells for human CD33+; assay type: in vivo, NOD/SCID小鼠; conditions: moribund mice, bone marrow cultured 24 h; oprozomib 0.43 mg/kg iv, arsenic trioxide 1.53 mg/kg iv; compared with positive control; Fig. 8-12
[8] = test system: 急性早幼粒白血病细胞HL-60; experiment: MTT cell survival assay, HL-60 cells; assay type: cell-based; conditions: HL-60, MTT, 48 h; arsenic trioxide 0.4-2 μM, oprozomib 40-200 nM, alone or combined (fixed 160 nM oprozomib or fixed 1.2 μM arsenic trioxide); Fig. 3, 4

Row | SMILES | Enhancement of the cancer cell inhibition of arsenic trioxide by a proteasome inhibitor [1] | 细胞存活率 (cell survival rate) [1] | 细胞存活率 (cell survival rate) [2] | Human CD33 expression in liver and spleen sections (immunohistochemistry) [3] | 细胞存活率 (cell survival rate) [4] | 细胞存活率 (cell survival rate) [5] | Infiltrating tumour cells in liver and spleen (HE staining) [6] | Human CD33+ positive cells in mouse bone marrow [7] | 细胞存活率 (cell survival rate) [8]
1 | CC(C)C[C@@H](C=O)NC(=O)[C@H](CC(C)C)NC(=O)[C@H](CC(C)C)NC(=O)OCc1ccccc1 [MG132] (Cbz-Leu-Leu-Leu-aldehyde) | 并不能增加三氧化二砷的癌细胞抑制效果 | – | – | – | – | – | – | – | –
2 | O=[As][As+](=O)[O-] (stereo not drawn) [三氧化二砷] | – | 无明显影响 | 无明显影响 | 略有减少但不明显 | 无明显影响 | 无明显影响 | 略有减少但不明显 | 有所减少 | 无明显影响
3 | COC[C@H](NC(=O)c1cnc(C)s1)C(=O)N[C@@H](COC)C(=O)N[C@@H](Cc1ccccc1)C(=O)[C@@]1(C)CO1 [奥普佐米] | 能极大地提升三氧化二砷的癌细胞抑制效果 | 无明显影响 | 无明显影响 | 略有减少但不明显 | 无明显影响 | 无明显影响 | 略有减少但不明显 | 有所减少 | 无明显影响
